In PMC10766854 (Frontiers in Pharmacology, 2023):

Legend:
[1] = Stability of analyte solutions and prepared samples, LC-MS/MS method validation; type: physicochemical; details: room temperature
Procedure: Plasma concentrations of liraglutide were analyzed using a validated, sensitive, and specific liquid chromatography–tandem mass spectrometry (LC-MS/MS) method developed by Shanghai WuXi AppTec New Drug Development Co. (Shanghai, China). Waters ACQUITY UPLC (Waters Corporation, United States) and AB Triple Quad 6500+ Mass Spectrometer (SCIEX Technologies, United States) combined with an electrospray ionization source were used for LC-MS/MS analysis. The internal standard of liraglutide was developed in-house. The chromatographic separation was performed on a C18 column (Waters) at 60°C with a flow rate of 600 μL/min. […] The linear range, limit of quantification, accuracy, precision, recovery, selectivity, and stability of the method were verified. The linear range of the analytical method for the determination of liraglutide in plasma was 1.00–250 ng/mL, and the lower limit of quantification (LLOQ) was 1.00 ng/mL. […] The analyte recoveries were determined using three gradients, high, medium, and low, with mean values of 48.0%, 47.6%, and 57.8%, respectively, corresponding to CVs of less than 8% and 57.3 for IS, corresponding to a CV of 5.1%. […] During analysis, plasma concentrations of liraglutide below the limit of quantification were listed as zero and missing values in PK samples before and after Tmax, respectively. […]

[2] = ref US Food and Drug Administration, 2017, cited from earlier work
Procedure: The lower dose on the steeper portion of the exposure–effect curve in healthy subjects was chosen to assess the difference between the subject drug and the reference drug ([CDER, 2014]), and therefore, 0.6 mg was selected as the dose to be administered in this comparative trial.

[3] = Safety and tolerability assessment (adverse events) in the crossover trial; type: in vivo, human; details: single s.c. 0.6 mg
Procedure: Subjects receiving the study drug were included in the safety assessment. The safety assessment included physical examination, vital signs (pre-dose and 1, 3, 12, 24, 48, and 72 h after administration of the study drug in the first and second cycles), laboratory tests, 12-lead electrocardiograms (pre-dose and 3, 24, 48, and 72 h after administration of the study drug in the first and second cycles), and blood glucose monitoring. Laboratory safety assessments were completed at the laboratory of Zhongshan Hospital, Fudan University, including routine blood, blood biochemistry, thyroid function, coagulation function, and urine routine tests. All adverse reactions were coded using MedDRA 21.0 terminology and categorized and analyzed according to SOC/PT.

[4] = ref US Food and Drug Administration, 2017, cited from earlier work; remark: listed apart in the source
Procedure: In five double-blind clinical trials of 26 weeks or longer, the incidence of gastrointestinal adverse reactions in patients was reported to be 41% in the liraglutide treatment group and was dose-related ([US Food and Drug Administration, 2017]). This is consistent with the pharmacodynamic profile of GLP-1R agonist-related drugs. […] In five clinical trials of 26 weeks or longer ([US Food and Drug Administration, 2017]), approximately 50%–70% of Victoza-treated patients were tested for anti-liraglutide antibodies at the end of treatment. Approximately 8.6% of the liraglutide-treated group were detected with low-titer (no serum concentration dilution required) anti-liraglutide antibodies. When comparing all antibody-positive and all antibody-negative patients, antibody formation wa ...

[5] = Pharmacokinetics and bioequivalence after a single subcutaneous injection, plasma liraglutide by LC-MS/MS; type: in vivo, human; details: single s.c. 0.6 mg, N = 36
Procedure: This trial was designed as a randomized, open, two-cycle, self-crossover trial. Screening was performed within 28 days prior to dosing, and eligible subjects were admitted to the Phase I Clinical Trial Ward in the afternoon of the first day prior to dosing and fasted for 10 h overnight after dinner. […] A total of 18 subjects received the test formulation in the first cycle, and the other 18 subjects received the reference formulation for administration and were crossover-administered for the second cycle of the study after a 14-day washout period. Drinking water was restricted for 1 h before and 1 h after dosing, water was drunk as needed at all other times, and a standardized nutritious meal was uniformly provided at least 4 h after dosing. The subjects were discharged from the hospital on the third day after dosing. Follow-up examinations were performed 72 h after the last dose of the second cycle.
After collection, the tubes were inverted six times, centrifuged at 4°C, 1,460 g for 10 min, and the plasma was aliquoted and placed it the numbered cryopreservation tube. Plasma samples were stored in a refrigerator at −80°C before analysis.
Waters ACQUITY UPLC (Waters Corporation, United States) and AB Triple Quad 6500+ Mass Spectrometer (SCIEX Technologies, United States) combined with an electrospray ionization source were used for LC-MS/MS analysis. […] The chromatographic separation was performed on a C18 column (Waters) at 60°C with a flow rate of 600 μL/min. The mobile phase A was 0.025% formic acid aqueous solution (v/v), and the mobile phase B was 0.025% formic acid acetonitrile aqueous solution (v/v). The linear range, limit of quantification, accuracy, precision, recovery, selectivity, and stability of the method were verified. […] In the concentration data listings, all missing data are indicated as “-” or NA (not applicable).
The pharmacokinetic parameters, including Tmax, Cmax, AUC0-t, AUC0-∞, t1/2z, AUC_%Extrap, Vz/F, and CLz/F, were calculated using the non-compartmental model of WinNonlin 7.0. Descriptive statistical analysis was performed on PK parameters, and the arithmetic mean, standard deviation, coefficient of variation, maximum, minimum, and geometric mean of each parameter were calculated. If AUC_%Extrap >20%, the subject’s AUC0-∞, t1/2z, Vz/F, and CLz/F were not to be used for descriptive statistical analysis.
Based on the blood concentration data, SAS 9.4 was used for statistical analysis. Cmax, AUC0-t, AUC0-∞, t1/2z, CLz/F, and Vz/F were logarithmically transformed and then analyzed using variance analysis (ANOVA). […] Two one-sided tests were performed for each parameter, and 90% CI of the geometric mean ratio (GMR) of the pharmacokinetic parameters (T/R) was calculated.

[6] = system: dipeptidyl dipeptidase-4; details: endogenous GLP-1, easily degraded by dipeptidyl dipeptidase-4; ref Drucker, 2003; cited from earlier work
Text: GLP-1 is an endogenous incretin hormone secreted primarily by intestinal L-cells ([Drucker, 2006]; [Baggio and Drucker, 2007]; [Müller et al., 2019]), which is involved in the regulation of glucose homeostasis through GLP-1R, a G-protein-coupled receptor, in a variety of ways, mainly including stimulation of insulin secretion in a glucose-dependent manner, inhibition of glucagon secretion, reduction of appetite, slowing down of gastric emptying ([Drucker and Nauck, 2006]; [Hare et al., 2010]), enhancement of insulin sensitivity ([Fernández-Millán et al., 2016]; [Capuani et al., 2018]; [Jiang e ...

[7] = single dose 0.6 mg subcutaneously
[8] = healthy Chinese subjects, N = 36

CCCCCCCCCCCCCCCC(=O)N[C@@H](CCC(=O)NCCCC[C@H](NC(=O)[C@H](C)NC(=O)[C@H](C)NC(=O)[C@H](CCC(N)=O)NC(=O)CNC(=O)[C@H](CCC(=O)O)NC(=O)[C@H](CC(C)C)NC(=O)[C@H](Cc1ccc(O)cc1)NC(=O)[C@H](CO)NC(=O)[C@H](CO)NC(=O)[C@@H](NC(=O)[C@H](CC(=O)O)NC(=O)[C@H](CO)NC(=O)[C@@H](NC(=O)[C@H](Cc1ccccc1)NC(=O)[C@@H](NC(=O)CNC(=O)[C@H](CCC(=O)O)NC(=O)[C@H](C)NC(=O)[C@@H](N)Cc1cnc[nH]1)[C@@H](C)O)[C@@H](C)O)C(C)C)C(=O)N[C@@H](CCC(=O)O)C(=O)N[C@@H](Cc1ccccc1)C(=O)N[C@H](C(=O)N[C@@H](C)C(=O)N[C@@H](Cc1c[nH]c2ccccc12)C(=O)N[C@@H](CC(C)C)C(=O)N[C@H](C(=O)N[C@@H](CCCNC(=N)N)C(=O)NCC(=O)N[C@@H](CCCNC(=N)N)C(=O)NCC(=O)O)C(C)C)[C@@H](C)CC)C(=O)O [Liraglutide, liraglutide]
Short-term stability (ULOQ) of the working solution ([1]; aqueous mixture of formic acid and acetonitrile): 146.9 h | Stability of the biological samples after preparation ([1]; prepared plasma samples): 21.5 h | Mean apparent volume of distribution [2, 7]: approximately 13 L | Mean peak (Cmax) [2, 7]: 35 ng/mL | Time to maximum concentration after dosing [2, 7]: 8 to 12 h | Total exposure (AUC) [2, 7]: 960 ng·h/mL | Mean apparent clearance ([2]; single dose, subcutaneous administration): approximately 1.2 L/h | Tolerability (in words) ([3]; healthy Chinese subjects): well tolerated | AEs leading to exit, Instance [3, 8]: 0 | AEs of grade 1 and above, Instance [3, 8]: 0 | Blurred right vision, Instance [3, 8]: 0 | Elevated blood glucose, Instance [3, 8]: 0 | Elevated free thyroxine, Instance [3, 8]: 1 | Elevated hypersensitivity thyroid-stimulating hormone, Instance [3, 8]: 1 | Hyperuricemia, Instance [3, 8]: 1 | Increased alanine aminotransferase, Instance [3, 8]: 0 | Increased urine leukocytes, Instance [3, 8]: 0 | Leukocyte increase, Instance [3, 8]: 1 | Serious AEs, Instance [3, 8]: 0 | AEs leading to exit, Number of cases (n%) ([3]; proportion of subjects, N = 36): 0% | AEs of grade 1 and above, Number of cases (n%) ([3]; proportion of subjects, N = 36): 0% | Blurred right vision, Number of cases (n%) ([3]; proportion of subjects, N = 36): 0% | Elevated blood glucose, Number of cases (n%) ([3]; proportion of subjects, N = 36): 0% | Elevated free thyroxine, Number of cases (n%) ([3]; proportion of subjects, N = 36): 2.78% | Elevated hypersensitivity thyroid-stimulating hormone, Number of cases (n%) ([3]; proportion of subjects, N = 36): 2.78% | Hyperuricemia, Number of cases (n%) ([3]; proportion of subjects, N = 36): 2.78% | Increased alanine aminotransferase, Number of cases (n%) ([3]; proportion of subjects, N = 36): 0% | Increased urine leukocytes, Number of cases (n%) ([3]; proportion of subjects, N = 36): 0% | Leukocyte increase, Number of cases (n%) ([3]; proportion of subjects, N = 36): 2.78% | Serious AEs, Number of cases (n%) ([3]; proportion of subjects, N = 36): 0% | Total AEs, Number of cases (n%) ([3]; proportion of subjects, N = 36): 8.33% | Number of adverse reactions / AEs ([3]; 36 subjects per group): four | Number of possible related adverse reactions (times) ([3]; 36 subjects per group): three | Subjects with adverse reactions (proportion) ([3]; 36 subjects per group): 8.33% | Subjects with adverse reactions / AEs (number of subjects) ([3]; 36 subjects per group): Three | Subjects with possible related adverse reactions (number of subjects) ([3]; 36 subjects per group): two | Subjects with possible related adverse reactions (proportion) ([3]; 36 subjects per group): 5.56% | Proportion of treated group with low-titer anti-liraglutide antibodies ([4]; five clinical trials of 26 weeks or longer, end of treatment): Approximately 8.6% | Incidence of gastrointestinal adverse reactions ([4]; patients, five double-blind clinical trials of 26 weeks or longer, dose-related): 41% | Vd/F ([5]; human, in vivo, sc, healthy Chinese subjects, plasma LC-MS/MS, non-compartmental, mean ± SD (%CV), read-out: Vz/F (apparent volume of distribution)): 8.34 L | Geometric mean ratio (T/R) of Cmax ([5]; test liraglutide injection versus Victoza, equivalence interval 80.00%–125.00%, 90% CI 99.54–108.10): 103.73% | Geometric mean ratio (T/R) of AUC0-t ([5]; test liraglutide injection versus Victoza, equivalence interval 80.00%–125.00%, 90% CI 99.85–106.26): 103.01% | Geometric mean ratio (T/R) of AUC0-∞ ([5]; test liraglutide injection versus Victoza, equivalence interval 80.00%–125.00%, 90% CI 100.04–106.11): 103.03%

GLP-1: Endogenous incretin hormone secreted primarily by intestinal L-cells
Effective half-life [6]: only a few minutes
